Where “and” joins values, the source holds several entries; their conditions need not be identical. Identical values can stand only once.
Tests used:
[1] = target: T1, P2X7 (Homo sapiens, UniProt Q99572); assay: YO-PRO-1 plate assay of P2X7 agonists with astrocytoma cell line 1321N1; type: cell-based; settings: for YO-PRO-1 fluorescence (485/20, 528/20), single well: 5 × 10^4 1321N1 cells; for YO-PRO-1 fluorescence, average of duplicate wells: 1321N1 cells;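 on all read-outs here: dye uptake read after 20 min agonist exposure with YO-PRO-1 present, unbound dye removed by washing before reading in a fluorescence plate reader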
T1 construct: host or cells: astrocytoma cell line (the earlier reading names it 1321N1)
T1 sequence (Q99572 1-595): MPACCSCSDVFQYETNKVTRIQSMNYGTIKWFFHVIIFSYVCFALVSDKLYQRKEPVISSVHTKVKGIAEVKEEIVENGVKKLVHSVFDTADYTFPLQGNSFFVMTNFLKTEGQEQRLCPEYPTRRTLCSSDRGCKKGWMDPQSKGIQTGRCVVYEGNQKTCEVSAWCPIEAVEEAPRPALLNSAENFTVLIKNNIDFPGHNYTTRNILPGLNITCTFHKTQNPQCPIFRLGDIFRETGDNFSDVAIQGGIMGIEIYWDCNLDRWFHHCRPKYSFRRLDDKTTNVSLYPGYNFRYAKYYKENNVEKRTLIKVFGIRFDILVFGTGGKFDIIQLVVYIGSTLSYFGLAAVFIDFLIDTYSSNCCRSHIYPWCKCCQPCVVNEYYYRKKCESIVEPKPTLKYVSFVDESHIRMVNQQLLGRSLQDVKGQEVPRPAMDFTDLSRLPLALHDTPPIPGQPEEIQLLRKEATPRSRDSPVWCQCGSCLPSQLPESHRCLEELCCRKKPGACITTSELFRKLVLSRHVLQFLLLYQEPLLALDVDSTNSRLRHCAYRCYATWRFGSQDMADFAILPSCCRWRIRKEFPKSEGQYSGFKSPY

[2] = system: animal model of severe sepsis; settings: co-administration, mice; cited from earlier work

Row | Structure (SMILES) | YO-PRO-1 fluorescence (485/20, 528/20), single well ([1]; agent 300 μM + YOPRO) | YO-PRO-1 fluorescence (485/20, 528/20), single well ([1]; agent 3 μM + YOPRO) | YO-PRO-1 fluorescence (485/20, 528/20), single well ([1]; agent 10 μM + YOPRO) | YO-PRO-1 fluorescence (485/20, 528/20), single well ([1]; agent 30 μM + YOPRO) | YO-PRO-1 fluorescence (485/20, 528/20), single well ([1]; agent 100 μM + YOPRO) | YO-PRO-1 fluorescence, average of duplicate wells ([1]; 1 uM, agent + YOPRO) | YO-PRO-1 fluorescence, average of duplicate wells ([1]; 3 uM, agent + YOPRO) | other results
1 | Nc1ncnc2c1ncn2[C@@H]1O[C@H](COP(=O)(O)OP(=O)(O)NP(=O)(O)O)[C@@H](O)[C@H]1O [AMPPNP, adenosine 5′(beta,gamma-imido)triphosphate] | 75 and 86 | – | – | – | – | – | – | –
2 | CSc1nc(N)c2ncn([C@@H]3O[C@H](COP(=O)(O)OP(=O)(O)OP(=O)(O)O)[C@@H](O)[C@H]3O)c2n1 [2MeSATP, 2-methylthio-adenosine 5′-triphosphate] | 168 and 162 | 109 and 102 | 144 | 157 and 154 | 155 and 170 | 105.5 | 144 | LPS-induced serum levels of TNF-alpha and IL-1 [2]: reductions in LPS-induced serum levels of TNF-alpha and IL-1; protection from endotoxic death [2]: protects mice from endotoxic death; YO-PRO-1 fluorescence (485/20, 528/20), single well ([1]; agent 1 mM + YOPRO): 161 and 164
3 | CN([C@@H](Cc1ccc(OS(=O)(=O)c2cccc3cnccc23)cc1)C(=O)N1CCN(c2ccccc2)CC1)S(=O)(=O)c1cccc2cnccc12 [KN62] | – | – | – | – | – | – | – | YO-PRO-1 fluorescence (485/20, 528/20), single well ([1]; 1 mM ATP + KN62 1 μM + YOPRO): 185 and 177; YO-PRO-1 fluorescence (485/20, 528/20), single well ([1]; 1 mM ATP + KN62 3 μM + YOPRO): 181 and 176; YO-PRO-1 fluorescence (485/20, 528/20), single well ([1]; 1 mM ATP + KN62 10 μM + YOPRO): 159; YO-PRO-1 fluorescence (485/20, 528/20), single well ([1]; 1 mM ATP + KN62 30 μM + YOPRO): 155 and 153; YO-PRO-1 fluorescence (485/20, 528/20), single well ([1]; 1 mM ATP + KN62 100 μM + YOPRO): 148; YO-PRO-1 fluorescence (485/20, 528/20), single well ([1]; 1 mM ATP + KN62 300 μM + YOPRO): 152 and 165; YO-PRO-1 fluorescence, average of duplicate wells ([1]; 1 mM ATP + KN62 1 uM + YOPRO): 181; YO-PRO-1 fluorescence, average of duplicate wells ([1]; 1 mM ATP + KN62 3 uM + YOPRO): 178.5
4 | O=c1ccn([C@@H]2O[C@H](COP(=O)(O)OP(=O)(O)OP(=O)(O)O)[C@@H](O)[C@H]2O)c(=O)[nH]1 [UTP] | 72 and 73 | – | – | – | – | – | – | –
5 | Nc1ncnc2c1ncn2[C@@H]1O[C@H](COP(=O)(O)CP(=O)(O)OP(=O)(O)O)[C@@H](O)[C@H]1O [ab-CH2-ATP] | 101 and 116 | 68 and 69 | 74 | 74 and 78 | 89 and 83 | 67.5 | 68.5 | YO-PRO-1 fluorescence (485/20, 528/20), single well ([1]; agent 1 μM + YOPRO): 68 and 67

Reference: patent publication US7960131B2, “Functional genomic pore assay for mixed cell populations” (Wisconsin Alumni Research Foundation, priority 2003, dated 2011)
